Test results as given in article PMC6199744, “Development of Chemical Proteomics for the Folateome and Analysis of the Kinetoplastid Folateome” (ACS Infectious Diseases, 2018).

Test system: L. major lysate proteins
Assay: Multitargeted bead mixture chemoproteomics, single concentration competition, proteome-wide
Format: binding
Details: for fold change: vehicle control = 1

NCCCNc1ccc(C(=O)NC(CCC(=O)O)C(=O)O)cc1 (stereo not drawn) [compound 7]
fold change vs vehicle control (protein LMJF.28.0110 PROTEASOME BETA 3 SUBUNIT, PUTATIVE): 0.99 | fold change vs vehicle control (protein LMJF.28.0490 PROPIONYL-COA C[…] CHAIN, PUTATIVE): 1.21 | fold change (protein LMJF.28.0710 HYPOTHETICAL PROTEIN, CONSERVED (SNARE associated Golgi protein, putative)): 0.86 | fold change vs vehicle control (protein LMJF.28.0930 HYPOTHETICAL PROTEIN, CONSERVED): 0.98 | fold change vs vehicle control (protein LMJF.28.0960 40S RIBOSOMAL PROTEIN S14): 0.99 | fold change vs vehicle control (protein LMJF.28.1530 ATP DEPENDENT DEAD-BOX HELICASE, PUTATIVE): 0.89 | fold change relative to vehicle control (protein LMJF.28.1730, PROTEASOME REGULATORY NON-ATP-ASE SUBUNIT 2, PUTATIVE): 1.27 | fold change relative to vehicle control (protein LMJF.28.2310, EUKARYOTIC TRANSLATION INITIATION FACTOR, PUTATIVE): 0.98 | fold change vs vehicle control (protein LMJF.28.2430 VACUOLAR ATP SYNTHASE SUBUNIT B, PUTATIVE): 1.03 | fold change relative to vehicle control (protein LMJF.28.2770, HEAT-SHOCK PROTEIN HSP70, PUTATIVE): 1.05 | fold change (protein LMJF.28.2910 GLUTAMATE DEHYDROGENASE, PUTATIVE): 0.88 | fold change vs vehicle control (protein LMJF.29.0120 PROTEASOME REGULATORY NON-ATPASE SUBUNIT, PUTATIVE): 1.1 | fold change (protein LMJF.29.0620 ATP-BINDING CASSETTE PROTEIN SUBFAMILY A, MEMBER 10, PUTATIVE): 0.79 | fold change vs vehicle control (protein LMJF.29.0760 […] BI[…], PUTATIVE,HEAT SHOCK PROTEIN 90, PUTATIVE): 1.16 | fold change relative to vehicle control (protein LMJF.29.0850, HIGH MOBILITY GROUP PROTEIN HOMOLOG TDP-1, PUTATIVE): 0.78 | fold change vs vehicle control (protein LMJF.29.0940 HY[…], CONSERVED): 1.11 | fold change vs vehicle control (protein LMJF.29.1160 TRYPAREDOXIN): 0.93 | fold change vs vehicle control (protein LMJF.29.1240 HY[…], UNKNOWN FUNCTION): 1.04 | fold change vs vehicle control (protein LMJF.29.1270 100 kDa heat shock protein (Hsp100)): 1.12 | fold change vs vehicle control (protein LMJF.29.1310 CARNITINE/CHOLINE ACETYLTRANSFERASE, PUTATIVE): 1 | fold change relative to vehicle control (protein LMJF.29.1760, PARAFLAGELLAR ROD PROTEIN 1D, PUTATIVE): 1.2 | fold change vs vehicle control (protein LMJF.29.1780 DIPHTHAMIDE SYNTHESIS PROTEIN, PUTATIVE): 0.94 | fold change (protein LMJF.29.2200 GTP-BINDING PROTEIN, PUTATIVE (dynamin-1-like protein)): 0.93 | fold change (protein LMJF.29.2310 ENOYL-COA HYDRATASE/ISOMERASE-LIKE PROTEIN): 0.93 | fold change vs vehicle control (protein LMJF.29.2360 ASPARTYL AMINOPEPTIDASE, PUTATIVE,METALLO-PEPTIDASE, CLAN MH, FAMILY M20): 1.05 | fold change (protein LMJF.29.2860 40S RIBOSOMAL PROTEIN S19-LIKE PROTEIN): 1.02 | fold change (protein LMJF.30.0580 HYPOTHETICAL PROTEIN, CONSERVED (AMP-binding enzyme, putative)): 0.85 | fold change (protein LMJF.30.0850 SURFACE PROTEIN AMASTIN, PUTATIVE): 0.92 | fold change vs vehicle control (protein LMJF.30.1250 PYRIDOXAL KINASE, PUTATIVE): 1.11 | fold change vs vehicle control (protein LMJF.30.2580 RETICULON DOMAIN PROTEIN, 22 KDA POTENTIALLY AGGRAVATING PROTEIN (PAPLE22)): 0.95 | fold change relative to vehicle control (protein LMJF.30.3090, HY[…], CONSERVED (RNA-binding protein 42, putative)): 1.06 | fold change vs vehicle control (protein LMJF.30.3240 GLUTAMYL-TRNA SYNTHETASE, PUTATIVE): 0.99 | fold change (protein LMJF.30.3430 HYPOTHETICAL PROTEIN, CONSERVED (protein mkt1, putative)): 1 | fold change (protein LMJF.30.3520 S-ADENOSYLMETHIONINE SYNTHETASE): 0.93 | fold change (protein LMJF.30.3570 ZINC FINGER-DOMAIN PROTEIN, PUTATIVE): 0.92 | fold change relative to vehicle control (protein LMJF.31.0080, HY[…], CONSERVED): 1.21 | fold change vs vehicle control (protein LMJF.31.0340 AMINO ACID PERMEASE, PUTATIVE): 1.04 | fold change (protein LMJF.31.1130 N-ACYL-L-AMINO ACID AMIDOHYDROLASE, PUTATIVE): 1.03 | fold change vs vehicle control (protein LMJF.31.1640 THIOLASE PROTEIN-LIKE PROTEIN): 0.99 | fold change relative to vehicle control (protein LMJF.31.2150, PROSTAGLANDIN F2-ALPHA SYNTHASE/D-ARABINOSE DEHYDROGENASE): 2.99 | fold change vs vehicle control (protein LMJF.31.2250 3,2-TRANS-ENOYL-COA ISOMERASE, MIT[…], PUTATIVE): 1.97 | fold change vs vehicle control (protein LMJF.32.0750 RNA BINDING PROTEIN, PUTATIVE): 0.99 | fold change vs vehicle control (protein LMJF.32.1060 DYNEIN, PUTATIVE): 1.08 | fold change relative to vehicle control (protein LMJF.32.1820, IRON […], PUTATIVE): 1.09 | fold change relative to vehicle control (protein LMJF.32.2320, C-14 STEROL REDUCTASE, PUTATIVE): 1.65 | fold change vs vehicle control (protein LMJF.32.3870 MYOSIN XXI): 0.92 | fold change relative to vehicle control (protein LMJF.33.0240, THIOL-DEPENDENT REDUCTASE 1): 1.07 | fold change (protein LMJF.33.0280 HYPOTHETICAL PROTEIN, CONSERVED): 0.96 | fold change relative to vehicle control (protein LMJF.33.0890, HYPOTHETICAL PROTEIN, CONSERVED): 0.93 | fold change vs vehicle control (protein LMJF.33.1070 HY[…], UNKNOWN FUNCTION): 1.09 | fold change vs vehicle control (protein LMJF.33.1330 CYSTEINE CONJUGATE BETA-LYASE, AMINOTRANSFERASE- LIKE PROTEIN): 0.98 | fold change (protein LMJF.33.1590 HYPOTHETICAL PROTEIN, CONSERVED (3-ketoacyl-CoA reductase, putative)): 1 | fold change relative to vehicle control (protein LMJF.33.1860, ATP-BINDING CASSETTE PROTEIN SUBFAMILY D, MEMBER 3, PUTATIVE): 1.06 | fold change relative to vehicle control (protein LMJF.33.2340, SUCCINYL-COA:3-KETOACID-COENZYME A TRANSFERASE, MIT[…], PUTATIVE): 1.19 | fold change relative to vehicle control (protein LMJF.33.2440, HY[…], CONSERVED): 1.14 | fold change relative to vehicle control (protein LMJF.33.2540, CARBOXYPEPTIDASE, PUTATIVE,METALLO-PEPTIDASE, CLAN MA(E), FAMILY M32): 1.06 | fold change (protein LMJF.33.3150 40S RIBOSOMAL PROTEIN S13, PUTATIVE): 0.96 | fold change relative to vehicle control (protein LMJF.34.0140, MALATE DEHYDROGENASE): 6.88 | fold change vs vehicle control (protein LMJF.34.0440 RIBOSOMAL PROTEIN S25): 1.13 | fold change relative to vehicle control (protein LMJF.34.2580, HY[…], CONSERVED (ALBA-domain protein 3)): 1.04 | fold change relative to vehicle control (protein LMJF.34.3250, PUTATIVE PYRUVATE/INDOLE-PYRUVATE CARBOXYLASE, PUTATIVE): 1.08 | fold change (protein LMJF.34.4370 20S PROTEASOME BETA 7 SUBUNIT, (PUTATIVE)): 0.97 | fold change vs vehicle control (protein LMJF.34.4620 HYPOTHETICAL PROTEIN, CONSERVED): 1.3 | fold change (protein LMJF.35.0070 PROHIBITIN, PUTATIVE): 1.03 | fold change vs vehicle control (protein LMJF.35.0360 ENOYL-COA HYDRATASE/ISOMERASE FAMILY PROTEIN, CONSERVED): 1.09 | fold change (protein LMJF.35.0370 ATP-DEPENDENT DEAD-BOX RNA HELICASE, PUTATIVE): 0.98
